Laboratory results from patent publication US6914045B2, “Glycopeptide antibiotics” (Wyeth Holdings Corporation, priority 2001, dated 2005).
Values after ≈ are worked out from the molar mass of the structure shown.

Key:
Enterococcus sp. = assay: in vitro antibacterial evaluation, MIC by broth dilution; format: cell-based; conditions: broth dilution, 18 hours at 35° C.; for MIC Enterococcus faecalis (ATCC 29212): strain ATCC 29212; for MIC Enterococcus faecalis (GC 2242): strain GC 2242; for MIC Enterococcus faecium (GC 2243): strain GC 2243; for MIC Enterococcus faecalis (GC 2691): strain GC 2691; for MIC Enterococcus faecalis (GC 3059): strain GC 3059; for MIC Enterococcus faecalis (GC 4552): strain GC 4552; for MIC Enterococcus faecalis (GC 4553): strain GC 4553; for MIC Enterococcus faecalis (GC 4554): strain GC 4554; for MIC Enterococcus faecium (GC 4556): strain GC 4556; for MIC Enterococcus faecium (GC 4557): strain GC 4557; for MIC Enterococcus avium (GC 4558): strain GC 4558; for MIC Enterococcus faecalis (GC 6189): strain GC 6189
Outline: (§1)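 MIC = lowest antibiotic concentration preventing visible growth; inoculum 5×10^5 CFU/mL; drug range 64-0.06 μg/mL; Muller-Hinton II […]; NCCLS M7-A2 guidance.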

Escherichia coli = assay: as above; format: cell-based; conditions: 18 hours at 35° C.; for MIC Escherichia coli (GC 4560): strain GC 4560
Outline: as §1

Staphylococcus sp. = assay: as above; format: cell-based; conditions: broth dilution, 18 hours at 35° C.
Outline: as §1

Streptococcus sp. = assay: as above; format: cell-based; conditions: broth dilution, 18 hours at 35° C.; for MIC Streptococcus pneumoniae (ATCC 6301): strain ATCC 6301; for MIC Streptococcus pneumoniae (GC 1894): strain GC 1894; for MIC Streptococcus pneumoniae (GC 4565): strain GC 4565
Outline: as §1

[1] = test system: Streptococcus pneumoniae (GC 1894); assay: acute lethal infection in mice; format: in vivo; conditions: female CD-1 mice, intraperitoneal challenge, intravenous 30 min. after infection, 7 day survival
Outline: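 Female CD-1 mice (20±2 g) got an intraperitoneal bacterial challenge lethal to untreated controls within 24–48 hr. Compound was dosed intravenously 30 min after infection, five mice per dose. ED50 was calculated from 7-day survival pooled across 3 tests.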

[2] = clinical pathology (serum clinical chemistry) in mice; format: in vivo; conditions: CD-1 mice, 20 mg/kg intravenously daily for 9 days, sera day 10
Experimental: 20-day-old CD-1 mice were divided into a vehicle control group (5 mice) and a treatment group (5 mice). Samples of glycopeptide antibiotics were administered at 20 mg/kg intravenously daily for 9 days.

[3] = anatomic pathology (histopathology of heart and kidney) in mice; format: in vivo; conditions: CD-1 mice, 20 mg/kg intravenously daily for 9 days, necropsy day 10, microscopic histopathology
Experimental: Samples of tissues from necropsied mice were formalin-fixed, paraffin-embedded, sectioned, stained with hematoxylin and eosin, and examined microscopically. Histopathologic findings were recorded. These findings were subjectively graded on a scale corresponding to slight, mild, moderate, marked and severe as compared to untreated controls.

CC(c1ccccc1)C1NC(=O)CNC(=O)C(CO)NC(=O)C(C(O)C2CNC(=N)N2C2OC(CO)C(O)C(O)C2O)NC(=O)C(C(O)C2CNC(=N)N2)NC(=O)C(Cc2ccc(OC3OC(CO)C(OC4OC5COC6(OC5C(O)C4O)C4CC5CC(C4)CC6C5)C(O)C3O)cc2)NC1=O (stereo not drawn) [Example 105, Cyclo[glycyl-β-methylphenylalanyl-O-[4-O-[4,6-O-(2-adamantylidene)hexopyranosyl]hexopyranosyl]tyrosyl-3-(2-iminoimidazolidin-4-yl)seryl-3-(3-hexopyranosyl-2-iminoimidazolidin-4-yl)serylseryl]]
MIC Enterococcus faecalis (ATCC 29212) (Enterococcus sp.): 1 to 2 µg/mL
MIC Enterococcus faecalis (GC 2242) (Enterococcus sp.): 0.5 to 2 µg/mL
MIC Enterococcus faecium (GC 2243) (Enterococcus sp.): 1 to 2 µg/mL
MIC Enterococcus faecalis (GC 2691) (Enterococcus sp.): 1 to 2 µg/mL
MIC Enterococcus faecalis (GC 3059) (Enterococcus sp.): 1 to 2 µg/mL
MIC Enterococcus faecalis (GC 4552) (Enterococcus sp.): 1 to 2 µg/mL
MIC Enterococcus faecalis (GC 4553) (Enterococcus sp.): 1 to 2 µg/mL
MIC Enterococcus faecalis (GC 4554) (Enterococcus sp.): 1 to 2 µg/mL
MIC Enterococcus faecium (GC 4556) (Enterococcus sp.): 0.5 to 2 µg/mL
MIC Enterococcus faecium (GC 4557) (Enterococcus sp.): 1 to 2 µg/mL
MIC Enterococcus avium (GC 4558) (Enterococcus sp.): 1 to 2 µg/mL
MIC Enterococcus faecalis (GC 6189) (Enterococcus sp.): 1 to 2 µg/mL
MIC Escherichia coli (GC 4559) (Escherichia coli; strain GC 4559): 32 µg/mL (≈ 22.4 µM)
MIC Escherichia coli (GC 4560) (Escherichia coli): 0.5 to 2 µg/mL
MIC Coagulase Negative Staphylococcus (GC 4547) (Staphylococcus sp.): 0.5 to 1 µg/mL
MIC Coagulase Negative Staphylococcus (GC 4548) (Staphylococcus sp.): <0.5 to 1 µg/mL
MIC Coagulase Negative Staphylococcus (GC 4549) (Staphylococcus sp.): 0.5 to 1 µg/mL
MIC Coagulase Negative Staphylococcus (GC 4551) (Staphylococcus sp.): <0.5 to 1 µg/mL
MIC Coagulase Negative Staphylococcus (GC 6257) (Staphylococcus sp.): 0.5 to 1 µg/mL
MIC Staphylococcus aureus (ATCC 29213) (Staphylococcus sp.): <0.5 to 1 µg/mL
MIC Staphylococcus aureus (GC 1131) (Staphylococcus sp.): 0.25 to 1 µg/mL
MIC Staphylococcus aureus (GC 3051) (Staphylococcus sp.): 0.5 to 1 µg/mL
MIC Staphylococcus aureus (GC 3053) (Staphylococcus sp.): 1 to 2 µg/mL
MIC Staphylococcus aureus (GC 4541) (Staphylococcus sp.): <0.5 to 1 µg/mL
MIC Staphylococcus aureus (GC 4542) (Staphylococcus sp.): 0.5 to 1 µg/mL
MIC Staphylococcus aureus (GC 4544) (Staphylococcus sp.): 0.25 to 2 µg/mL
MIC Staphylococcus aureus (GC 4545) (Staphylococcus sp.): <0.5 to 1 µg/mL
MIC Staphylococcus aureus-SMITH (GC 4543) (Staphylococcus sp.): 0.25 to 1 µg/mL
MIC Staphylococcus haemolyticus (GC 4546) (Staphylococcus sp.): <0.5 to 1 µg/mL
MIC Staphylococcus haemolyticus (GC 4546) (Staphylococcus sp.; strain GC 4546): <0.5 to 1 µg/mL
MIC Coagulase Negative Staphylococcus (GC 4547) (Staphylococcus sp.; strain GC 4547): 0.5 to 1 µg/mL
MIC Coagulase Negative Staphylococcus (GC 4548) (Staphylococcus sp.; strain GC 4548): <0.5 to 1 µg/mL
MIC Coagulase Negative Staphylococcus (GC 4549) (Staphylococcus sp.; strain GC 4549): 0.5 to 1 µg/mL
MIC Coagulase Negative Staphylococcus (GC 4551) (Staphylococcus sp.; strain GC 4551): <0.5 to 1 µg/mL
MIC Coagulase Negative Staphylococcus (GC 6257) (Staphylococcus sp.; strain GC 6257): 0.5 to 1 µg/mL
MIC Streptococcus pneumoniae (ATCC 6301) (Streptococcus sp.): <0.06 µg/mL
MIC Streptococcus pneumoniae (GC 1894) (Streptococcus sp.): <0.06 µg/mL
MIC Streptococcus pneumoniae (GC 4565) (Streptococcus sp.): <0.06 µg/mL
median effective dose (ED50), Streptococcus pneumoniae (GC 1894) [1]: 0.04 mg/kg
Clinical Chemistry (Day 10) % of Control, ALT [2]: +480%
Clinical Chemistry (Day 10) % of Control, BUN [2]: +35%
Anatomical Pathology (Day 10), Heart [3]: +++
Anatomical Pathology (Day 10), Kidney [3]: +++

N=C1NCC(C(O)C2NC(=O)C(Cc3ccc(OC4OC(CO)C(OC5OC6COC7(OC6C(O)C5O)C5CC6CC(C5)CC7C6)C(O)C4O)cc3)NC(=O)C(CC3CCCCC3)NC(=O)CNC(=O)C(CO)NC(=O)C(C(O)C3CNC(=N)N3C3OC(CO)C(O)C(O)C3O)NC2=O)N1 (stereo not drawn) [Example 106, Cyclo[3-cyclohexylalanyl-O-[4-O-[4,6-O-(2-adamantylidene)hexopyranosyl]hexopyranosyl]-tyrosyl-3-(2-iminoimidazolidin-4-yl)seryl-3-(3-hexopyranosyl-2-iminoimidazolidin-4-yl)-serylserylglycyl]]
MIC Enterococcus faecalis (ATCC 29212) (Enterococcus sp.): 0.5 to 2 µg/mL
MIC Enterococcus faecalis (GC 2242) (Enterococcus sp.): 0.5 to 2 µg/mL
MIC Enterococcus faecium (GC 2243) (Enterococcus sp.): 0.5 to 2 µg/mL
MIC Enterococcus faecalis (GC 2691) (Enterococcus sp.): 1 to 2 µg/mL
MIC Enterococcus faecalis (GC 3059) (Enterococcus sp.): 1 to 2 µg/mL
MIC Enterococcus faecalis (GC 4552) (Enterococcus sp.): 1 to 2 µg/mL
MIC Enterococcus faecalis (GC 4553) (Enterococcus sp.): 1 to 2 µg/mL
MIC Enterococcus faecalis (GC 4554) (Enterococcus sp.): 1 to 2 µg/mL
MIC Enterococcus faecium (GC 4556) (Enterococcus sp.): 0.5 to 2 µg/mL
MIC Enterococcus faecium (GC 4557) (Enterococcus sp.): 0.5 to 2 µg/mL
MIC Enterococcus avium (GC 4558) (Enterococcus sp.): 1 to 2 µg/mL
MIC Enterococcus faecalis (GC 6189) (Enterococcus sp.): 1 to 2 µg/mL
MIC Escherichia coli (GC 4560) (Escherichia coli): 0.5 to 2 µg/mL
MIC Coagulase Negative Staphylococcus (GC 4547) (Staphylococcus sp.): 0.5 to 2 µg/mL
MIC Coagulase Negative Staphylococcus (GC 4548) (Staphylococcus sp.): 0.25 to 1 µg/mL
MIC Coagulase Negative Staphylococcus (GC 4549) (Staphylococcus sp.): <0.12 to 1 µg/mL
MIC Coagulase Negative Staphylococcus (GC 4551) (Staphylococcus sp.): 0.25 to 1 µg/mL
MIC Coagulase Negative Staphylococcus (GC 6257) (Staphylococcus sp.): 0.25 µg/mL (≈ 0.176 µM)
MIC Staphylococcus aureus (ATCC 29213) (Staphylococcus sp.): 0.5 to 2 µg/mL
MIC Staphylococcus aureus (GC 1131) (Staphylococcus sp.): 0.5 to 2 µg/mL
MIC Staphylococcus aureus (GC 3051) (Staphylococcus sp.): 0.5 to 2 µg/mL
MIC Staphylococcus aureus (GC 3053) (Staphylococcus sp.): 0.5 to 2 µg/mL
MIC Staphylococcus aureus (GC 4541) (Staphylococcus sp.): 0.5 to 2 µg/mL
MIC Staphylococcus aureus (GC 4542) (Staphylococcus sp.): 0.25 to 1 µg/mL
MIC Staphylococcus aureus (GC 4544) (Staphylococcus sp.): 0.25 to 2 µg/mL
MIC Staphylococcus aureus (GC 4545) (Staphylococcus sp.): 0.5 to 2 µg/mL
MIC Staphylococcus aureus-SMITH (GC 4543) (Staphylococcus sp.): 0.25 to 1 µg/mL
MIC Staphylococcus haemolyticus (GC 4546) (Staphylococcus sp.): 0.5 to 1 µg/mL
MIC Staphylococcus haemolyticus (GC 4546) (Staphylococcus sp.; strain GC 4546): 0.5 to 1 µg/mL
MIC Coagulase Negative Staphylococcus (GC 4547) (Staphylococcus sp.; strain GC 4547): 0.5 to 2 µg/mL
MIC Coagulase Negative Staphylococcus (GC 6257) (Staphylococcus sp.; strain GC 6257): 0.25 µg/mL (≈ 0.176 µM)
MIC Streptococcus pneumoniae (ATCC 6301) (Streptococcus sp.): <0.03 µg/mL
MIC Streptococcus pneumoniae (GC 1894) (Streptococcus sp.): <0.03 µg/mL
MIC Streptococcus pyogenes (GC 4563) (Streptococcus sp.; strain GC 4563): <0.03 µg/mL
MIC Streptococcus agalactiae (GC 4564) (Streptococcus sp.; strain GC 4564): <0.03 µg/mL
MIC Streptococcus pneumoniae (GC 4565) (Streptococcus sp.): <0.03 µg/mL
median effective dose (ED50), Streptococcus pneumoniae (GC 1894) [1]: 0.07 mg/kg
Anatomical Pathology (Day 10), Heart [3]: 0
